Reference: PubChem BioAssay (NCI)
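96-well plates; 48 h exposure; 5 concentrations. Endpoints by linear interpolation between flanking doses. Not reached: highest tested concentration assigned. TGI is the concentration that stops growth completely.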

Experiments:
Test in all cases: growth of human tumour cells (NCI), 48 h
SK-MEL-5 melanoma = system: SK-MEL-5 melanoma
OVCAR-5 ovarian = system: OVCAR-5 ovarian
CCRF-CEM leukemia = system: CCRF-CEM leukemia
NCI-H522 lung = system: NCI-H522 lung
HT29 colon = system: HT29 colon
SNB-19 CNS = system: SNB-19 CNS
EKVX NSCLC = system: EKVX NSCLC
SF-539 CNS = system: SF-539 CNS
NCI-H226 lung = system: NCI-H226 lung
OVCAR-3 ovarian = system: OVCAR-3 ovarian
SK-MEL-2 melanoma = system: SK-MEL-2 melanoma
HCT-15 colon = system: HCT-15 colon
HOP-92 NSCLC = system: HOP-92 NSCLC
XF 498 CNS = system: XF 498 CNS
SF-295 CNS = system: SF-295 CNS
DLD-1 colon = system: DLD-1 colon
HL-60(TB) leukemia = system: HL-60(TB) leukemia
M14 melanoma = system: M14 melanoma
KM12 colon = system: KM12 colon
HCT-116 colon = system: HCT-116 colon
TK-10 renal = system: TK-10 renal
HOP-18 NSCLC = system: HOP-18 NSCLC
A498 renal = system: A498 renal
KM20L2 colon = system: KM20L2 colon
M19-MEL melanoma = system: M19-MEL melanoma
HCC-2998 colon = system: HCC-2998 colon
UACC-257 melanoma = system: UACC-257 melanoma
OVCAR-8 ovarian = system: OVCAR-8 ovarian
786-0 renal = system: 786-0 renal
DMS 114 small cell lung = system: DMS 114 small cell lung
NCI-H460 lung = system: NCI-H460 lung
NCI-H23 lung = system: NCI-H23 lung
LXFL 529 NSCLC = system: LXFL 529 NSCLC
DMS 273 small cell lung = system: DMS 273 small cell lung
MALME-3M melanoma = system: MALME-3M melanoma
LOX IMVI melanoma = system: LOX IMVI melanoma
SF-268 CNS = system: SF-268 CNS
OVCAR-4 ovarian = system: OVCAR-4 ovarian
COLO 205 colon = system: COLO 205 colon
U251 CNS = system: U251 CNS
SNB-78 CNS = system: SNB-78 CNS
UACC-62 melanoma = system: UACC-62 melanoma
SK-OV-3 ovarian = system: SK-OV-3 ovarian
SNB-75 CNS = system: SNB-75 CNS
ACHN renal = system: ACHN renal
RXF-631 renal = system: RXF-631 renal
SK-MEL-28 melanoma = system: SK-MEL-28 melanoma
A549 NSCLC = system: A549 NSCLC
SW-620 colon = system: SW-620 colon
IGROV1 ovarian = system: IGROV1 ovarian
RXF 393 renal = system: RXF 393 renal
UO-31 renal = system: UO-31 renal
HOP-62 NSCLC = system: HOP-62 NSCLC
K-562 leukemia = system: K-562 leukemia
CAKI-1 renal = system: CAKI-1 renal
RPMI-8226 leukemia = system: RPMI-8226 leukemia
SR leukemia = system: SR leukemia
MOLT-4 leukemia = system: MOLT-4 leukemia
SN12C renal = system: SN12C renal

CCCCCCCCCCCCC(Br)C(=O)NCC(N)=O (configuration not stated)
TGI (SK-MEL-5 melanoma): 18.4 µM | TGI (OVCAR-5 ovarian): 57.3 µM | TGI (CCRF-CEM leukemia): 66.3 µM | TGI (NCI-H522 lung): 5.22 µM | TGI (HT29 colon): 36 µM | TGI (SNB-19 CNS): 24.3 µM | TGI (EKVX NSCLC): 42 µM | TGI (SF-539 CNS): 27.7 µM | TGI (NCI-H226 lung): 8.79 µM | TGI (OVCAR-3 ovarian): 32.1 µM | TGI (SK-MEL-2 melanoma): 26.4 µM | TGI (HCT-15 colon): 28.7 µM | TGI (HOP-92 NSCLC): 18.9 µM | TGI (XF 498 CNS): 3.83 µM | TGI (SF-295 CNS): 29.5 µM | TGI (DLD-1 colon): 29.8 µM | TGI (HL-60(TB) leukemia): 31 µM | TGI (M14 melanoma): 24.6 µM | TGI (KM12 colon): 28.8 µM | TGI (HCT-116 colon): 3.72 µM | TGI (TK-10 renal): 34.7 µM | TGI (HOP-18 NSCLC): 28.2 µM | TGI (A498 renal): 26.7 µM | TGI (KM20L2 colon): 42.5 µM | TGI (M19-MEL melanoma): 32.5 µM | TGI (HCC-2998 colon): 31 µM | TGI (UACC-257 melanoma): 24.7 µM | TGI (OVCAR-8 ovarian): 33.6 µM | TGI (786-0 renal): 20.9 µM | TGI (DMS 114 small cell lung): 15.2 µM | TGI (NCI-H460 lung): 34.7 µM | TGI (NCI-H23 lung): 14.7 µM | TGI (LXFL 529 NSCLC): 21.5 µM | TGI (DMS 273 small cell lung): 25 µM | TGI (MALME-3M melanoma): 28 µM | TGI (LOX IMVI melanoma): 42.1 µM | TGI (SF-268 CNS): 17.8 µM | TGI (OVCAR-4 ovarian): 12.6 µM | TGI (COLO 205 colon): 39.2 µM | TGI (U251 CNS): 24.6 µM | TGI (SNB-78 CNS): 32.2 µM | TGI (UACC-62 melanoma): 22.7 µM | TGI (SK-OV-3 ovarian): 59.2 µM | TGI (SNB-75 CNS): 11.6 µM | TGI (ACHN renal): 29.2 µM | TGI (RXF-631 renal): 18.4 µM | TGI (SK-MEL-28 melanoma): 29.2 µM | TGI (A549 NSCLC): 34.7 µM | TGI (SW-620 colon): 52.9 µM | TGI (IGROV1 ovarian): 29.8 µM | TGI (RXF 393 renal): 8.52 µM | TGI (UO-31 renal): 6.92 µM | TGI (HOP-62 NSCLC): 29.3 µM

COc1cc(C(C)O)c[n+](Cc2ccccc2)c1 (configuration not stated)
TGI (SK-MEL-5 melanoma): > 100 µM | TGI (OVCAR-5 ovarian): > 100 µM | TGI (K-562 leukemia): > 100 µM | TGI (CAKI-1 renal): > 100 µM | TGI (CCRF-CEM leukemia): > 100 µM | TGI (NCI-H522 lung): > 100 µM | TGI (RPMI-8226 leukemia): > 100 µM | TGI (HT29 colon): > 100 µM | TGI (SNB-19 CNS): > 100 µM | TGI (EKVX NSCLC): > 100 µM | TGI (SF-539 CNS): > 100 µM | TGI (NCI-H226 lung): > 100 µM | TGI (SR leukemia): > 100 µM | TGI (OVCAR-3 ovarian): > 100 µM | TGI (SK-MEL-2 melanoma): > 100 µM | TGI (HCT-15 colon): > 100 µM | TGI (HOP-92 NSCLC): > 100 µM | TGI (MOLT-4 leukemia): > 100 µM | TGI (XF 498 CNS): > 31.6 µM | TGI (SF-295 CNS): > 100 µM | TGI (DLD-1 colon): > 100 µM | TGI (HL-60(TB) leukemia): > 100 µM | TGI (M14 melanoma): > 100 µM | TGI (SN12C renal): > 100 µM | TGI (KM12 colon): > 100 µM | TGI (HCT-116 colon): > 100 µM | TGI (TK-10 renal): > 100 µM | TGI (HOP-18 NSCLC): > 100 µM | TGI (A498 renal): > 100 µM | TGI (KM20L2 colon): > 100 µM | TGI (M19-MEL melanoma): > 100 µM | TGI (HCC-2998 colon): > 100 µM | TGI (UACC-257 melanoma): > 100 µM | TGI (OVCAR-8 ovarian): > 31.6 µM | TGI (786-0 renal): > 100 µM | TGI (DMS 114 small cell lung): > 100 µM | TGI (NCI-H460 lung): > 100 µM | TGI (NCI-H23 lung): > 100 µM | TGI (LXFL 529 NSCLC): > 100 µM | TGI (DMS 273 small cell lung): > 100 µM | TGI (MALME-3M melanoma): > 100 µM | TGI (LOX IMVI melanoma): > 100 µM | TGI (SF-268 CNS): > 100 µM | TGI (OVCAR-4 ovarian): > 100 µM | TGI (COLO 205 colon): > 100 µM | TGI (U251 CNS): > 100 µM | TGI (SNB-78 CNS): > 100 µM | TGI (UACC-62 melanoma): > 100 µM | TGI (SK-OV-3 ovarian): > 100 µM | TGI (SNB-75 CNS): > 100 µM | TGI (ACHN renal): > 100 µM | TGI (RXF-631 renal): > 100 µM | TGI (SK-MEL-28 melanoma): > 100 µM | TGI (A549 NSCLC): > 100 µM | TGI (SW-620 colon): > 100 µM | TGI (IGROV1 ovarian): > 100 µM | TGI (RXF 393 renal): > 100 µM | TGI (UO-31 renal): > 100 µM | TGI (HOP-62 NSCLC): > 100 µM
